pIC50: −log10 of the molar value.
Assays:
NEP (SHR kidneys) = test: Ex vivo NEP-inhibitory activity in kidneys of treated SHR; set-up: species or system spontaneously hypertensive rats (SHR); conditions: i.v. 0.64 μmoles/kg, 5 minutes
Method: (§1) The ex vivo ACE/NEP-inhibitory activity of the compounds of formula I, in particular, was evaluated by considering the enzymatic activity in tissue homogenates (lung and kidney for the ACE- and NEP-inhibitory activity, respectively) from spontaneously hypertensive rats (SHR), treated with the tested compounds by intravenous or oral route.
a) NEP-inhibitory activity
The ex vivo NEP-inhibitory activity was evaluated according to the procedure reported in the literature by M. Orlowsky et al., in Biochemistry 1981, 20, 4942-4950.
The inhibitory activity of the compounds of formula I was evaluated in kidneys of spontaneously hypertensive rats (SHR), 5 minutes after i.v. injection (0.6, 0.64 and 21 μmoles/kg) and 30 minutes, 60 minutes and 4 hours after oral administration (30 μmoles/kg) of the tested compounds.
After the removal of the kidneys from SHR, the renal tissue was homogenized and incubated for 15 minutes at 37° C. in the presence of Glutaryl-Ala-Ala-Phe-2-naphthylamide (GAAP), as a substrate, and aminopeptidase M at pH 7.6.
The reaction was stopped by adding an aqueous solution at 10% of trichloroacetic acid.
The released 2-naphthylamine was determined by adding fast garnet dye (2 ml).
Enzyme reaction rates were determined by measuring the increase in the optical density at 524 nm (OD524) with respect to a standard obtained with 2-naphthylamine complexed with fast garnet.
The NEP-inhibitory activity of the tested compounds was expressed as percentage of NEP-inhibition in SHR kidneys.
(§2) As an example, the percentages of basal enzymatic activity obtained in the ex vivo tests after the administration of compounds 29 and 41, as representative compounds of formula I, and of the comparison compounds R-1, R-2, R-3 and R-4 are reported in the following table 2.

[1] = target: T1, ACE (purified by lung rabbit, EC 3.4.15.1) (Oryctolagus cuniculus, UniProt P12822); test: In vitro ACE-inhibitory activity (FAPGG substrate, spectrophotometric); assay type: biochemical; conditions: 37° C.; FAPGG 0.8 mM
T1 construct: purchased SIGMA; host or cells: rabbit lung
T1 sequence (P12822 34-1310): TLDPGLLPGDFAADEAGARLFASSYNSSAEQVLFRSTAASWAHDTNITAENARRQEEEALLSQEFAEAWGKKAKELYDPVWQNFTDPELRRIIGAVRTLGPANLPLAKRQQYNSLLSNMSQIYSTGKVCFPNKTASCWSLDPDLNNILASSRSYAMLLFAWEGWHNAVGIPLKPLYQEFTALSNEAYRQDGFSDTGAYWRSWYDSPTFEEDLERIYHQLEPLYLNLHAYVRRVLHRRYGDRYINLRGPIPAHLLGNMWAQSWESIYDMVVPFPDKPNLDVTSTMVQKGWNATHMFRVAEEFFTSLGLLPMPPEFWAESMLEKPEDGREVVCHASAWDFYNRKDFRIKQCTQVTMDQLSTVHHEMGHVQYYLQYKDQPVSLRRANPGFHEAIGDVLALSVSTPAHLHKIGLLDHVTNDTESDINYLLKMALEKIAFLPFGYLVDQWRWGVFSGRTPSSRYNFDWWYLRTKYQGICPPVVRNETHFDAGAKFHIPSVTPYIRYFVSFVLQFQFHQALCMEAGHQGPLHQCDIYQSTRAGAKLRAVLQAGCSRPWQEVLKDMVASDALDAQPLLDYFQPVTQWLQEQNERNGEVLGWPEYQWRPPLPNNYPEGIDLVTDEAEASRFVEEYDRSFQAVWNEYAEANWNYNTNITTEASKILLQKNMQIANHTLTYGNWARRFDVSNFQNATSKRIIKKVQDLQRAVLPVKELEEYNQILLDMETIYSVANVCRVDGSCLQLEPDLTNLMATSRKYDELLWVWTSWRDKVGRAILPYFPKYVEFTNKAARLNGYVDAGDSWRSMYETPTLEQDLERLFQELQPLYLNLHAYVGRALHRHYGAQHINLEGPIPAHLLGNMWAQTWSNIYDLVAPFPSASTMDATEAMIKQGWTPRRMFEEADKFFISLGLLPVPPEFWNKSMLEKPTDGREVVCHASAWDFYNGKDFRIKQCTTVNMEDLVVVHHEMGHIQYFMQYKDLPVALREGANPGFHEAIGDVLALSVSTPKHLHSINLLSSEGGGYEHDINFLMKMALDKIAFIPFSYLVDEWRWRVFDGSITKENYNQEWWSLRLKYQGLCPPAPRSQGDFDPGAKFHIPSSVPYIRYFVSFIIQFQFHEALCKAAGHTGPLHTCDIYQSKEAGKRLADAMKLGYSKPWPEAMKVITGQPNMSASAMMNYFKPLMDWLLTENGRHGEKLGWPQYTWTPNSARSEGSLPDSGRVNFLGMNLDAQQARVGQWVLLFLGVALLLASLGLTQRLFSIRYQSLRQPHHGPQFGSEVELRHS
Method: (§3) b) ACE-inhibitory activity
The ACE-inhibitory activity was evaluated according to the method reported in the literature by B. Holmquist et al., in Analytical Biochemistry 95, 540-548 (1979).
[…] of ACE (250 mU/ml purified by lung rabbit, EC 3.4.15.1 SIGMA) were preincubated with 50 μl of the compound of formula I or of the comparison compound in thermostated cuvettes at 37° C.
The reaction was started by adding furylacryloylphenylalanylglycylglycine 0.8 mM (FAPGG-SIGMA).
Contemporaneously, by using a Beckman DU-50 spectrophotometer provided with a program for calculating delta A/minutes and regression coefficients of the enzyme kinetics curves, the absorbance at 340 nm was recorded in continuo for 5 minutes.
The percentage of the enzyme inhibition in the preparations treated with the compounds of formula I or with the comparative compounds with respect to the untreated preparations was expressed as IC50 (nM) value.

ACE (SHR lungs) = test: Ex vivo ACE-inhibitory activity in lungs of treated SHR; set-up: species or system spontaneously hypertensive rats (SHR); conditions: i.v. 0.64 μmoles/kg, 5 minutes
Method: as §1, §3
The ex vivo ACE-inhibitory activity was evaluated by using a radiometric assay method, as reported in the literature by J. W. Ryan et al. in Biochem. J. (1977), 167, 501-504.
The inhibitory activity of the compounds of formula I was evaluated in lungs of spontaneously hypertensive rats (SHR), 5 minutes after i.v. injection (0.6, 0.64 and 21 μmoles/kg) and 30 minutes, 60 minutes and 4 hours after oral administration (30 μmoles/kg) of the tested compounds.
After the removal of the lungs from SHR, the lung tissue was homogenized and incubated for 2 hours at 37° C. in the presence of [^3 H]Hyp-Gly-Gly, as a substrate.
The reaction was stopped by adding hydrochloric acid.
The released radiolabelled hyppuric acid was extracted with ethyl acetate and counted by liquid scintillation spectrometry, according to conventional methods.
The ACE-inhibitory activity of the tested compounds was expressed as percentage of ACE-inhibition in SHR lungs.
as §2

pIC50 [1]: 8.30
Structure (SMILES): O=C(N[C@@H](Cc1ccc(-c2ccccc2)cc1)C(=O)O)C(CS)Cc1ccccc1 (stereo partly drawn) [compound 41]
NEP-inhibition (kidneys), 5 minutes (NEP (SHR kidneys)): 20%
ACE-inhibition (lungs), 5 minutes (ACE (SHR lungs)): 49%

Reference: US5760241A, “Thiol derivatives with metallopeptidase inhibitory activity” (priority 1996, dated 1998)
